Legend:
[1] = Blood levels of L-dopa after intravenous administration of drugs (rats); type: in vivo, SD-strain male rats
Protocol: FIG. 7 illustrates change with time of a blood level of L-dopa in intravenously administering Compound A (o) and L-dopa (.cndot.) to rats.
Measuring blood levels of L-dopa after intravenous administration of drugs (rats)
Seven to eight week-old SD-strain male rats (n=3) were previously fasted for 18 hours. Twenty milligrams of L-dopa as a control drug or the equimolar amount of Compound A was dissolved in a concentration of 10 mg/ml in a physiolosical saline containing 50% propylene glycol, and the resulting solution was intravenously administered to the rats at a dose of 10 mg eq./kg, calculated as L-dopa. Immediately after administration, or 5, 15, 30, 45, 60, 90, 120, 150, 180 or 240 minutes after administration, 120 μl of blood was collected through a carotid cannula intubated in advance three days before the test using a heparin-treated glass capillary. The blood was treated as in Test Example 1 and then measured for blood levels of L-dopa.

[2] = Concentrations of L-dopa in the lumen and tissue of the small intestine by an in situ ligating loop method (rats); type: in vivo, male rats; details: jejunal loop, with 0.4 mg carbidopa
From the text: FIG. 8 illustrates change with time of amounts of Compound A (Δ) and L-dopa (o) after injection of Compound A, and amount of L-dopa (.cndot.) after injection of L-dopa in the lumen of the small intestine of rats according to an in situ ligating loop method.
FIG. 9 illustrates change with time of amounts of Compound A (Δ) and L-dopa (o) after injection of Compound A, and amount of L-dopa (.cndot.) after injection of L-dopa in the tissue of the small intestine of rats according to an in situ ligating loop method.
Measuring concentrations of L-dopa in the lumen and tissue of the small intestine by an in situ ligating loop method (rats)
Eight week-old male rats (n=3) were fasted overnight before the test, and then under ether anesthesia, were incised at the abdomen. An acute loop of 8 cm length was ligated in the jejunum. Compound A (1.47 mg) or 1.00 mg of L-dopa as a control drug was suspended in 0.5 ml of 0.5% sodium carboxymethylcellulose together with 0.4 mg of carbidopa, and the suspension was injected into the loop. The loop was returned in the abdominal cabity and the cut portion was then sewn. After a fixed time, the loop was taken out again and the content in the loop was well washed with a ice-cooled physiological saline. […] In the resulting solutions, the concentration of L-dopa was determined as in Test Example 1 and the concentration of Compound A as follows, respectively. […]

[3] = Acute toxicity, oral administration (mice); type: in vivo, ddY-strain male mice; details: mortality up to 1 week; for LD50 at 168 h: mouse, in vivo
From the text: Each of the test drugs was suspended in a 0.5% sodium carboxymethylcellulose solution containing 0.1% Tween 80 and orally administered to each of ddY-strain male mice (body weight 24 to 31 g, n=5), and a mortality up to 1 week after administration was observed. Toxicity of test compounds (Compounds A and B) was extremely low. The LD50 value was 6 g/kg or more in both cases.

[4] = Acute toxicity, intraperitoneal administration (mice); type: in vivo, ddY-strain male mice; details: for mortality: up to 1 week, n=5
From the text: (2) Intraperitoneal administration
Each of the test drugs was suspended in a sterilized physiological saline and intraperitoneally administered to ddY-strain male mice (body weight 24 to 29 g, n=5), and a mortality up to 1 week after administration was observed.

[5] = cited from earlier work
[6] = concluded from conversion to L-dopa

Structure (SMILES)	hydrolysis to L-dopa in the systemic circulation ([1]; 10 mg eq./kg as L-dopa)	conversion ratio to L-dopa ([1]; 10 mg eq./kg as L-dopa, estimated)	bioavailability [1, 6]	toxicity [1, 6]	amount of L-dopa in the lumen (washing liquid) and tissue (homogenate) of the small intestine ([2]; 1.47 mg Compound A vs 1.00 mg L-dopa)	concentration of L-dopa in the lumen and tissue of the small intestine [2]	toxicity [3]	LD50 at 168 h [3]	mortality ([4]; 1800 mg/kg)	toxicity ([4]; mortality up to 1 week)	mortality ([4]; 1250 mg/kg)	blood level of L-dopa ([5]; human, in vivo)	appearance of dyskinesias after administration of L-dopa ([5]; patients, chronic L-dopa therapy)	elimination of L-dopa from blood ([5]; patients)
CC(C)(C)C(=O)Oc1ccc(C[C@H](N)C(=O)O)cc1O [Compound A, 4-O-pivaloyl-L-dopa]	rapidly and completely hydrolyzed to L-dopa	about 100%	high bioavailability	low toxicity	retained for a longer time with less fluctuation than that after administration of L-dopa	kept low	extremely low	≥ 6000 mg/kg	no case of death was observed	very low				
CC1(C(=O)Oc2ccc(C[C@H](N)C(=O)O)cc2O)CC1 [Compound B, 4-O-(1-methylcyclopropanecarbonyl)-L-dopa]							extremely low	≥ 6000 mg/kg						
N[C@@H](Cc1ccc(O)c(O)c1)C(=O)O [L-dopa]								3200 mg/kg	all the test mice were dead		two of five mice were dead	rapidly increases and falls	1 to 2 h	rapid elimination

Reference: US4966915A, “L-dopa derivatives or their acid addition salts, process for producing same and their use” (priority 1987, dated 1990)
